Assay results from patent US20200239530A1, “COMPOUNDS AND METHODS OF MODULATING PROTEIN DEGRADATION” (Vividion Therapeutics, Inc., priority 2017, published 2020).

Tests used:
[1] = target: T1, CDK16 Cyclin-dependent kinase 16 (Homo sapiens, UniProt Q00536); experiment: Cysteine liganding, probe competition; format: binding; settings: for Liganded: CDK16 Res# 206, uniprot Q00536
T1 construct: 200 μL of lysate containing 5 mg/ml proteome was treated with 2 μL of 100× compound stock; endogenous in cells
In short: (§1)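 Steps: sonicate cells in cold PBS; treat 5 mg/ml lysate with compound (25° C, 1 hr); add desthiobiotin iodoacetamide probe from a 10 mM stock (25° C, 1 hr); precipitate, reduce, alkylate, digest with trypsin; capture labelled peptides on streptavidin for analysis.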

[2] = target: T2, KIAA0528 Uncharacterized protein KIAA0528 (Homo sapiens, UniProt Q86YS7); experiment: Cysteine liganding, probe competition; format: binding
T2 construct: Cells were resuspended in cold PBS on ice and sonicated with a probe sonicator to achieve lysis; endogenous in cells
T2 sequence (Q86YS7 1-1000): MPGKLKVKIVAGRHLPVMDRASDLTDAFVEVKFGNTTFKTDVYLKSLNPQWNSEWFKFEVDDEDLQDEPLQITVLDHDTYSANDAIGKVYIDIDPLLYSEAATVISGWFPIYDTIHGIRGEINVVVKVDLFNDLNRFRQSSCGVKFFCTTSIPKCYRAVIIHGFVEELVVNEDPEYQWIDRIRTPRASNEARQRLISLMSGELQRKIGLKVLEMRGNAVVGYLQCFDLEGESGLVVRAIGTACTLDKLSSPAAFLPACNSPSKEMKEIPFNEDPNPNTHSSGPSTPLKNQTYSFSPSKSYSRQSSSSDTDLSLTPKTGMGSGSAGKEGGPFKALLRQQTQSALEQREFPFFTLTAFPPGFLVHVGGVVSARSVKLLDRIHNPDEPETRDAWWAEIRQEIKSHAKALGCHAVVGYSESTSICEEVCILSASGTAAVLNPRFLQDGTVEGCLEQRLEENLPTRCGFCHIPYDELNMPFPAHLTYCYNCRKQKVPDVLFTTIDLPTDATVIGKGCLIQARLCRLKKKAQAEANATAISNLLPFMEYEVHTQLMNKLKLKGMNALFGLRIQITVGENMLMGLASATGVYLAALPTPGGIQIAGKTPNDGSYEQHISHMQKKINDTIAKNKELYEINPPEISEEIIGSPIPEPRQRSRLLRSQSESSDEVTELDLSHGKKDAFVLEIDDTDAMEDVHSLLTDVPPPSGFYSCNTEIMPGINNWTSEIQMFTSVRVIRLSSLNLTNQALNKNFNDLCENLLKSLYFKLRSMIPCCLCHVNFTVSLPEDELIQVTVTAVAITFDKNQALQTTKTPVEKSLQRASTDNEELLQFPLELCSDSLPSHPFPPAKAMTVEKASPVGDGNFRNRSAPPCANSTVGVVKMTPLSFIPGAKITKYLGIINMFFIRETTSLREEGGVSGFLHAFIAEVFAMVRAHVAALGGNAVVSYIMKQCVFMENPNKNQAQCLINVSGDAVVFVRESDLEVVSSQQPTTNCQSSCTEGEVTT
In short: as §1

T1 sequence (Q00536 whole entry): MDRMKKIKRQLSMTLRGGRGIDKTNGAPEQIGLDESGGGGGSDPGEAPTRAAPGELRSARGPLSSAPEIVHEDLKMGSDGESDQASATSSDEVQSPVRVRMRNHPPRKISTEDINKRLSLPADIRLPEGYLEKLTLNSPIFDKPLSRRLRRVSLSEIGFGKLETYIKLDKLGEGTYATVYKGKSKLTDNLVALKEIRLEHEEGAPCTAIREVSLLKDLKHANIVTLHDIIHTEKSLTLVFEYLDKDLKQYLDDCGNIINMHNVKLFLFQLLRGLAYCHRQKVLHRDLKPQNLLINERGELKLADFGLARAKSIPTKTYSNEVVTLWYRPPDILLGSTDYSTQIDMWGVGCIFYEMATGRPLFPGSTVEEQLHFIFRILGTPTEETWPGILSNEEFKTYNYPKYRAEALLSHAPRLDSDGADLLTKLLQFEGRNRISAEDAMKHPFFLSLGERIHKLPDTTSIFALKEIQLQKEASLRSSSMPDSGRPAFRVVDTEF

Compound | Liganded [1] | Liganded ([2]; KIAA0528 Res# 867, uniprot Q86YS7) | 100 Max ([1]; uniprot Q00536) | 100 ave ([1]; uniprot Q00536) | 500 ave ([1]; uniprot Q00536) | 500 Max ([1]; uniprot Q00536, in % (unit assumed)) | 100 ave ([2]; uniprot Q86YS7) | 500 Max ([2]; uniprot Q86YS7) | 500 ave ([2]; uniprot Q86YS7) | 100 Max ([2]; uniprot Q86YS7, unit assumed)
COc1ccc2c(c1)CCCN2C(=O)CCl [KB02] | YES | YES |  |  |  |  |  |  |  | 
O=C(CCl)Nc1cc(C(F)(F)F)cc(C(F)(F)F)c1 [KBO3] | YES |  | 50.67 | 28.2075 | 79.225 | 80.44 | −6.4125 | 46.81 | 33.415 | 7.23%
